From paper PMC4750701, “Role of Mitochondrial RNA Polymerase in the Toxicity of Nucleotide Inhibitors of Hepatitis C Virus” (Antimicrobial Agents and Chemotherapy, 2016)
Like-named read-outs stand apart in the source and are kept apart here.

What was measured:
[1] = target: T1, RNA PolI (Rattus norvegicus, UniProt O54889); test: RNA PolI inhibition assay; assay type: biochemical; conditions: NTP analogs 0 to 500 μM; read-out: Mean IC50 ± SD for RNA PolI
T1 construct: complexes were isolated from rat NSN1 cells and HeLa cells, respectively; made in house; host or cells: rat NSN1 cells expressing a FLAG-tagged Pol I subunit
Source text: (§1) Human DNA polymerase alpha, isolated from HeLa cell extracts, was from CHIMERx (Madison, WI). Recombinant human DNA polymerase beta, expressed in E. coli, was a gift from Zucai Suo at The Ohio State University. Recombinant human DNA polymerase gamma (including both the large subunit and the small subunit) was cloned, expressed, and purified from insect cells by Gilead Sciences (Foster City, CA) ([13]). RNA PolII was purchased as part of the HeLaScribe nuclear extract in vitro transcription system kit from Promega (Madison, WI). The recombinant human PolRMT and the transcription factors mitochondrial transcription factor A (mtTFA) and B2 (mtTFB2) were purchased from Enzymax (Lexington, KY). FLAG epitope-tagged RNA PolI and PolIII complexes were isolated from rat NSN1 cells and HeLa cells, respectively ([17], [18]). The inhibition of DNA polymerases alpha, beta, and gamma, PolRMT, and PolII and the rate of single-nucleotide incorporation by PolRMT have been described previously in detail ([12], [13], [19]). Inhibition of RNA PolI and PolIII was studied using published methods ([20], [21]). All concentrations were final unless noted otherwise. For the RNA PolI inhibition assay, a reaction mixture containing 50 mM HEPES (pH 7.9), 20% glycerol, 100 mM KCl, 1 mM dithiothreitol (DTT), 50 μg/ml calf thymus DNA, 4 mM MgCl2, 5 or 80 μM UTP (0.25 μl of [5,6-^3H]UTP, >25 Ci/mmol; PerkinElmer), 1 mM noncompeting NTP, competing NTP (5 μM for GTP, CTP, and UTP and 25 μM for ATP), and various concentrations (0 to 500 μM) of NTP analogs was preincubated at 30°C for 5 min. […] After incubation at 30°C for 20 min to 1 h, the reactions were terminated by pipetting the mixtures onto DEAE-cellulose discs (DE81; Whatman), and the products analyzed as described previously ([20], [21]).

[2] = target: T2, RNA PolIII (Homo sapiens, UniProt O14802+Q9NW08); test: RNA PolIII inhibition assay; assay type: biochemical; conditions: competing NTP 100 μM CTP and GTP, 500 μM ATP; read-out: Mean IC50 ± SD for RNA PolIII
T2 construct: complexes were isolated from rat NSN1 cells and HeLa cells, respectively; made in house; host or cells: HeLa cells expressing a FLAG-tagged Pol III subunit
Source text: as §1
The RNA PolIII inhibition assay was conducted in a similar manner, except that the concentrations of the competing NTP were modified to 100 μM for CTP and GTP and 500 μM for ATP to compensate for the low assay signal at lower NTP concentrations.

[3] = target: T3, recombinant human PolRMT (Homo sapiens, UniProt O00411); test: Inhibition of PolRMT-catalyzed RNA synthesis; assay type: biochemical; conditions: read-out: Mean IC50 ± SD for PolRMT
T3 construct: purchased Enzymax (Lexington, KY)
Source text: Activated fish sperm DNA was purchased from USB/Affymetrix (Santa Clara, CA) and used as a template for the DNA polymerases alpha, beta, and gamma. […] The RNA and DNA oligonucleotides used in the mitochondrial RNA polymerase assay (see Table S1 in the supplemental material) were synthesized and PAGE purified by Thermo Scientific/Dharmacon (Lafayette, CO). RNA primer R12 was 5′-^32P-phosphorylated with [γ-^32P]ATP (3,000 Ci/mmol) and T4 kinase (New England BioLabs, Ipswich, MA).
as §1, with “otherwise.” for “otherwise. For the RNA PolI inhibition assay, a reaction mixture containing 50 mM HEPES (pH 7.9), 20% glycerol, 100 mM KCl, 1 mM dithiothreitol (DTT), 50 μg/ml calf thymus DNA, 4 mM MgCl2, 5 or 80 μM UTP (0.25 μl of [5,6-^3H]UTP, >25 Ci/mmol; PerkinElmer), 1 mM noncompeting NTP, competing NTP (5 μM for GTP, CTP, and UTP and 25 μM for ATP), and various concentrations (0 to 500 μM) of NTP analogs was preincubated at 30°C for 5 min.”

[4] = target: T4, RNA PolII (Homo sapiens, UniProt P24928+P30876); test: Inhibition of RNA PolII (HeLaScribe nuclear extract transcription); assay type: biochemical; conditions: nucleotide analogs (Table 6); read-out: Mean IC50 ± SD for RNA PolII
T4 construct: purchased as part of the HeLaScribe nuclear extract in vitro transcription system kit; purchased Promega (Madison, WI); host or cells: HeLa nuclear extract (endogenous enzyme)
Source text: Activated fish sperm DNA was purchased from USB/Affymetrix (Santa Clara, CA) and used as a template for the DNA polymerases alpha, beta, and gamma. The DNA template used in the RNA Pol II assay was a 1,188-bp restriction fragment containing the cytomegalovirus (CMV) immediate early promoter (Promega, Madison, WI). The RNA and DNA oligonucleotides used in the mitochondrial RNA polymerase assay (see Table S1 in the supplemental material) were synthesized and PAGE purified by Thermo Scientific/Dharmacon (Lafayette, CO). RNA primer R12 was 5′-^32P-phosphorylated with [γ-^32P]ATP (3,000 Ci/mmol) and T4 kinase (New England BioLabs, Ipswich, MA).
as §1

[5] = tested on: RNA transcription products from PolI (preribosome), PolII (myc), and PolRMT (ATP6) in PC-3 cells; test: RNA transcripts in PC-3 cells by RT-PCR; assay type: cell-based, human; conditions: 5 μM, 1-day treatment
Method: CX-5461, a known specific RNA PolI inhibitor, was used as the positive control ([25]). The growth medium was aspirated and replaced with 200 μl of 100 μM BMS-986094, 5 μM CX-5461, or DMSO control prepared in growth medium. At selected time points (0.5, 1, 4, 8, and 24 h), duplicate wells of the compounds and DMSO control were aspirated, the cells were washed 1× with PBS (pH 7.4), and 100 μl of RNA lysis buffer was added (Promega, Sunnyvale, CA). RNA was purified using the Wizard SV 96 total RNA isolation kit (Promega) and eluted in 100 μl of nuclease-free water. The TaqMan RNA-to-Ct 1-step kit (ABI/Life Technologies) was used for reverse transcription-quantitative PCR (RT-qPCR) amplification and quantification, using the 7900HT Fast real-time PCR system (ABI) under the following conditions: 15 min at 48°C for reverse transcription and 10 min at 95°C for activation, followed by 40 cycles of 15 s at 95°C for denaturation and 1 min at 60°C for annealing and extension. […] Transcripts were quantified relative to the standard curves, and the results expressed as the percentages of the average value of DMSO control wells.

[6] = tested on: nuclear DNA-encoded succinate dehydrogenase (SDH-A; complex II) protein level; test: Nuclear protein synthesis (SDH-A, MitoBiogenesis in-cell ELISA) in PC-3 cells; assay type: cell-based, human; conditions: human, read-out: Mean CC50 ± SD causing General cellular toxicity: Protein synthesis
Method: (§2) PC-3 cells were treated with the compounds for 5 days and analyzed with the MitoTox MitoBiogenesis in-cell enzyme-linked immunosorbent assay (ELISA) kit (MitoSciences/Abcam, Eugene, Oregon) as described previously ([13]). The assay uses quantitative immunocytochemistry to measure the protein levels of nuclear DNA-encoded succinate dehydrogenase (SDH-A; complex II [succinate dehydrogenase]) and mitochondrial DNA-encoded cytochrome c oxidase (COX-1; complex IV [cytochrome c oxidase]) in cultured cells.

[7] = Cytotoxicity in primary human hepatocytes, 5 days; conditions: human, primary human hepatocytes
Method: (§3) Primary human hepatocytes were from Bioreclamation IVT (Westbury, NY) or Life Technologies (Carlsbad, CA).
(§4) All cells were cultured at 37°C in a 5% CO2 incubator with 90% humidity unless noted otherwise. […] All cells were treated with the various compounds for 5 days, except for human erythroid and myeloid progenitors, which were treated for 14 days. After the incubation period, cell viability was measured by the addition of CellTiter Glo viability reagents (Promega, Madison, WI). The luminescence signal was quantified on an Envision luminescence plate reader (PerkinElmer, Waltham, MA) after incubation of the reagents and cells for 10 min at room temperature. […] CC50 values were calculated as the average of the results of three or four independent experiments.

[8] = Cytotoxicity in Huh7 cells, 5-day treatment (CellTiter Glo); conditions: human, Huh-7 cells
Method: as §4
Cell Culture and Cytotoxicity Studies
(§5) The Huh-7 cells were maintained in growth medium containing Dulbecco's Modified Eagle
(§6) Medium (DMEM, Cellgro) supplemented with 1% Nonessential Amino Acids (NEAA, Cellgro,
(§7) Manassas, VA), 10% fetal bovine serum (FBS, HyClone, Logan, UT) and 1% Penicillin-
(§8) streptomycin-glutamate (PSG, Invitrogen, Carlsbad, CA). The cells were passaged twice weekly
(§9) and maintained at 90% confluence densities.
(§10) The HepG2 cells were maintained in Eagle’s Minimum Essential Medium (EMEM) from ATCC
(§11) (Manassas, VA) supplemented with 10% FBS, 100 units/mL penicillin and 100 µg/mL
(§12) streptomycin (P/S) (Gibco). The cells were passaged twice weekly and maintained at 90%
(§13) The PC-3 cells were maintained in Kaighn’s F12 medium (Gibco, Carlsbad, CA) supplemented
(§14) with 10% FBS (HyClone, Logan, UT), 100 units/mL penicillin and 100 µg/mL streptomycin
(§15) (P/S) (Gibco). The cells were passaged twice weekly and maintained at 90% confluence. Cells
(§16) between passages 4 and 15 were used in the assays.
(§17) The fibroblast cell line MRC-5 cell line derived from normal lung tissue, was purchased from
(§18) ATCC (Manassas, VA) and cultured in Minimum Essential Medium (MEM) (Cellgro, Manassas,
(§19) VA) supplemented with 10% FBS (HyClone, Logan, UT) and 1% PSG (Invitrogen). The cells
(§20) were passaged twice weekly and maintained at 90% confluence densities.

[9] = Cytotoxicity in stimulated PBMCs, 5 days; conditions: human, stimulated PBMCs
Method: (§21) Human peripheral blood mononuclear cells (PBMCs) were isolated from human buffy coats obtained from healthy volunteers (Stanford Blood Bank, Palo Alto, CA) using standard Ficoll separation and stimulated as described elsewhere ([13]) and were tested at both quiescent and stimulated stages. Quiescent PBMCs were stimulated with 10 units per ml of recombinant human interleukin 2 (hIL-2) and 1 μg per ml phytohemagglutinin P (PHA-P) for 48 h prior to drug treatment.
as §4
(§22) Human peripheral blood mononuclear cells (PBMCs) were isolated from human buffy coats
(§23) obtained from normal healthy volunteers (Stanford Medical School Blood Center, Palo Alto,
(§24) CA). Total PBMCs were isolated from buffy coats using standard Ficoll separation and sterile
(§25) cellular isolation techniques performed in a bio-safety cabinet (1). Except where noted, the
(§26) procedure was carried out at room temperature. The final PBMCs pellet was resuspended in
(§27) Logan, UT), penicillin 100 units/mL and streptomycin 100 µg/mL (Gibco). For quiescent
(§28) PBMCs cultures, total cells were seeded in 96-well plates at a density of 1 x 10^6 cells per well, followed by immediate drug treatment. Stimulated PBMCs cultures were set up by seeding the freshly isolated PBMCs in T-175cm2 tissue culture flasks in 100 mL of RPMI containing the same components as the ones used for the quiescent PBMCs but with the addition of 10 units per mL of recombinant human interleukin-2 (hIL-2, Roche, Indianapolis, IN), and 1 µg per mL phytohemagglutinin-P (PHA-P, Sigma-Aldrich, St. Louis, MO) at density of 2  10^6 cells per mL for 48 hours at 37C in a 5% CO2 incubator with 90% humidity, prior to drug treatment.

[10] = Cytotoxicity / ATP level in PC-3 cells, 5-day treatment; conditions: human, PC-3 cells
Method: as §4
Cell Culture and Cytotoxicity Studies
as §5, §6, §7, §8, §9, §10, §11, §12, §13, §14, §15, §16, §17, §18, §19, §20

[11] = tested on: mitochondrial DNA-encoded cytochrome c oxidase (COX-1); test: Mitochondrial protein synthesis assay (COX-1, MitoBiogenesis in-cell ELISA) in PC-3 cells; assay type: cell-based, human; conditions: PC-3 cells, 5-day treatments
Method: as §2

[12] = tested on: mitochondrial DNA-encoded cytochrome c oxidase (COX-1; complex IV) protein level; test: as above; assay type: cell-based, human; conditions: human; PC-3 cells, COX-1, 5 days; read-out: Mean CC50 ± SD causing Mitochondrial toxicity: Protein synthesis
Method: as §2

[13] = Cytotoxicity in HepG2 (galactose) cells, 5-day treatment; conditions: human, HepG2 cells (galactose)
Method: as §4
Cell Culture and Cytotoxicity Studies
as §5, §6, §7, §8, §9, §10, §11, §12, §13, §14, §15, §16, §17, §18, §19, §20

[14] = Cytotoxicity in MRC5 fibroblasts, 5-day treatment; conditions: human, MRC5 fibroblasts
Method: as §4
Cell Culture and Cytotoxicity Studies
as §5, §6, §7, §8, §9, §10, §11, §12, §13, §14, §15, §16, §17, §18, §19, §20

[15] = Bone marrow myeloid progenitor colony assay, 14 days; assay type: cell-based, human; conditions: human, human bone marrow myeloid progenitors, read-out: Mean CC50 ± SD in Bone marrow cells Myeloid
[16] = Cytotoxicity in primary rat neonatal cardiomyocytes, 5 days; assay type: cell-based; conditions: Sprague Dawley, primary rat neonatal cardiomyocytes, 5-day treatment, read-out: CC50 (mean ± standard deviation) in primary rat cardiomyocytes
[17] = tested on: mitochondrial spare respiratory capacity; test: Oxygen consumption rate / spare respiratory capacity in PC-3 cells; conditions: human, PC-3 cells, pH 7.4
Method: (§29) Mitochondrial respiration was monitored by measuring the rate of oxygen consumption (OCR) of PC-3 cells after 3-day treatments with the compounds, using a Seahorse extracellular flux analyzer (XF^e-96) based on published protocols ([22][–][24]). The optimal cell seeding was determined by measuring the basal OCR of PC-3 cells that were seeded at different densities of 2.5 × 10^3, 5 × 10^3, 7.5 × 10^3, and 10 × 10^3 cells/well in XF 96-well plates (Seahorse Bioscience, North Billerica, MA) and incubated with 0.5% dimethyl sulfoxide (DMSO) for 3 days. […] Each reagent in the Mito Stress test kit (Seahorse Biosciences), i.e., ATP synthase inhibitor oligomycin, mitochondrial uncoupler carbonyl cyanide-4-(trifluoromethoxy)phenylhydrazone (FCCP), and a fixed-ratio mixture of the mitochondrial complex I (NADH dehydrogenase) inhibitor rotenone and the complex III (CoQH2-cytochrome c reductase) inhibitor antimycin A, was titrated. The lowest concentration that reached the maximal effect was chosen for each reagent. The OCR signals were normalized by cell numbers using DNA content determined by Hoechst's stain as described below.
(§30) PC-3 cells were seeded at a density of 5 × 10^3 cells/well in XF 96-well plates and incubated with the compounds for 3 days. On the day of the assay, the cell medium was replaced with XF assay medium (pH 7.4) containing 10 mM glucose and 1 mM freshly prepared pyruvate. Mitochondrial respiration was monitored by measuring OCR on a Seahorse extracellular flux analyzer (XF^e-96). All concentrations listed are the final concentration after mixing unless noted otherwise. […] Spare respiratory capacity was obtained by subtracting the rate of basal respiration from the rate of maximal respiration.
(§31) The cells were lysed by freezing at −80°C for >2 h. […] In parallel, another set of cells was treated with the compounds for 3 days and the ATP levels were measured using CellTiter Glo viability reagents (Promega, Madison, WI).

[18] = tested on: mitochondrial spare respiratory capacity in PC-3 cells; test: as above; conditions: PC-3 cells, 3-day treatments
Method: as §29, §30, §31

[19] = Cytotoxicity in quiescent PBMCs, 5 days; conditions: human, quiescent PBMCs
Method: as §21, §4, §22, §23, §24, §25, §26, §27, §28

[20] = Bone marrow erythroid progenitor colony assay, 14 days; assay type: cell-based, human; conditions: human, human bone marrow erythroid progenitors, read-out: Mean CC50 ± SD in Bone marrow cells Erythroid
[21] = Cytotoxicity in MT-4 T-cells, 5-day treatment; conditions: human, MT-4 cells
Method: as §3, §4

T3 sequence (O00411 42-1230): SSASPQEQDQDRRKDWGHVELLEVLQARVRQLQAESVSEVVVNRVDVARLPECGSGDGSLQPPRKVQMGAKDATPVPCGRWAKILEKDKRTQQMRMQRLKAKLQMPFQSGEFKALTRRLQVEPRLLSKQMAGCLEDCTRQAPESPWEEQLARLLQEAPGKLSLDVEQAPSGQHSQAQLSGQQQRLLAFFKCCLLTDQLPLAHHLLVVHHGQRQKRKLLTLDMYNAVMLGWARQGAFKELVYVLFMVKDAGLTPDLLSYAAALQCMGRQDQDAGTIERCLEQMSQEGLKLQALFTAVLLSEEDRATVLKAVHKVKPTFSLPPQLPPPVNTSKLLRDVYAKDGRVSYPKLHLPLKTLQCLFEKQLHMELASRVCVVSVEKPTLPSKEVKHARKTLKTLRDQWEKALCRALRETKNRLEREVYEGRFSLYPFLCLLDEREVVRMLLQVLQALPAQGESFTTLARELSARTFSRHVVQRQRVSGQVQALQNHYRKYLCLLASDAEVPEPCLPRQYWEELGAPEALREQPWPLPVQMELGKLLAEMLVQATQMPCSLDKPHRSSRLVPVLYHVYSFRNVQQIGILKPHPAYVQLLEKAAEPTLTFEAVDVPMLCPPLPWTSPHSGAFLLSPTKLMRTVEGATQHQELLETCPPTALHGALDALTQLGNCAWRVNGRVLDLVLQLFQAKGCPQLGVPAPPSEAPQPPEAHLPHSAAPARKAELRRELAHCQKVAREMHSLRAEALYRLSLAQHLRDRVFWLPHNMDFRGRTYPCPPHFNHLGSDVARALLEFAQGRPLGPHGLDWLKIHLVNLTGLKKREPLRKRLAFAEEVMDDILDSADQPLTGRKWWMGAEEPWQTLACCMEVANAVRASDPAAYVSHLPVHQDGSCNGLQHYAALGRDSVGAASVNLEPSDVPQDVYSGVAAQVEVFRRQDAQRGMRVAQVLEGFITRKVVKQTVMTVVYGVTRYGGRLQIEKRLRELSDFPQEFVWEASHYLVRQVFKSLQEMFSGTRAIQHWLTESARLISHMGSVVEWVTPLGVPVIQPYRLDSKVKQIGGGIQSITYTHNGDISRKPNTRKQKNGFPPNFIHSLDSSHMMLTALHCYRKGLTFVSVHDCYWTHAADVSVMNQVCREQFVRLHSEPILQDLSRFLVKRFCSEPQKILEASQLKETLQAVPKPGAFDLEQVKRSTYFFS
T1 sequence (O54889 whole entry): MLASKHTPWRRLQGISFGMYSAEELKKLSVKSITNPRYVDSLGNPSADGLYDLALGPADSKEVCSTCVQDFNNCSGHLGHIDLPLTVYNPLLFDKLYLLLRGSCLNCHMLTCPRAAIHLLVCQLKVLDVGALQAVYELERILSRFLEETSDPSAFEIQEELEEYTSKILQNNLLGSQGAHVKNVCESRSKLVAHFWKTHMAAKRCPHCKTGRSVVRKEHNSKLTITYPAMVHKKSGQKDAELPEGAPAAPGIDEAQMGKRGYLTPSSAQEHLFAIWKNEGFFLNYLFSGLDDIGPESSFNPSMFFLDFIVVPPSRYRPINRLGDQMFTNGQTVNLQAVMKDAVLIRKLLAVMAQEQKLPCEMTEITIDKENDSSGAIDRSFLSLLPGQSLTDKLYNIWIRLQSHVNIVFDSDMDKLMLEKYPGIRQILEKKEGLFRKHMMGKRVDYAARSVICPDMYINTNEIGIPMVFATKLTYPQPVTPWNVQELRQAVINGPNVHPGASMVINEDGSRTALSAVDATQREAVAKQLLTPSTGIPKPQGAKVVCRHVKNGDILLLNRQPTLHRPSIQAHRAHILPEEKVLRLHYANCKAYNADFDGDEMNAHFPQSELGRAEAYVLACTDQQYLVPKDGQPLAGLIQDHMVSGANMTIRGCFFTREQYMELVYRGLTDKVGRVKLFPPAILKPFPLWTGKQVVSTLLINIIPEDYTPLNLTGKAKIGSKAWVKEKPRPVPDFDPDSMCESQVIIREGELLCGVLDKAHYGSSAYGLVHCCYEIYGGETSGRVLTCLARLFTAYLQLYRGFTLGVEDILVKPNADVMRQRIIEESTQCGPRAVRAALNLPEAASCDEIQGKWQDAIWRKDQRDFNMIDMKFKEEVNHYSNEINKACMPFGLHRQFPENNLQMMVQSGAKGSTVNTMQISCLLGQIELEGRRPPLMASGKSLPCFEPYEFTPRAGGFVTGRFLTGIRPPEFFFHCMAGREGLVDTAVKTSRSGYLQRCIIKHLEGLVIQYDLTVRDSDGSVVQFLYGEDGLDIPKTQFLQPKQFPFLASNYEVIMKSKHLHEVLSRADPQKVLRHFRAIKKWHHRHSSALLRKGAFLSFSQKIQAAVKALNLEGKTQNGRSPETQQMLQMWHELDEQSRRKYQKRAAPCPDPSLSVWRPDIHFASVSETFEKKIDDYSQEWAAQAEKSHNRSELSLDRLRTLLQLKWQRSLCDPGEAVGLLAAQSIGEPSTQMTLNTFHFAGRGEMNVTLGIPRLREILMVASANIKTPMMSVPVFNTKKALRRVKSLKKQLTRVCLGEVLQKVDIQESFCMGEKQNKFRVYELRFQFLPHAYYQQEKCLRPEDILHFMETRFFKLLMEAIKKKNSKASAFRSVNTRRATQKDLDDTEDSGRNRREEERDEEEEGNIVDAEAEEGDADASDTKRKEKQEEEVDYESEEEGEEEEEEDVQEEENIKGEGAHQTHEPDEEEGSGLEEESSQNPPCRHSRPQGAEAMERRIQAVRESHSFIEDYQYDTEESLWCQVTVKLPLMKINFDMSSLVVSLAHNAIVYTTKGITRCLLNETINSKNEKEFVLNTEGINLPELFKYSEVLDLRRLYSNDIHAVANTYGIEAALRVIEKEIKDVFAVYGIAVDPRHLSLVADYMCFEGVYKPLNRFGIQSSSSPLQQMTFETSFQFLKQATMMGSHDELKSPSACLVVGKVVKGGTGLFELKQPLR

C[C@@]1(O)[C@H](O)[C@@H](COP(=O)(O)OP(=O)(O)OP(=O)(O)O)O[C@H]1n1ccc(=O)[nH]c1=O [2′CMeUTP]
IC50 [1]: 690 ± 230 µM
IC50 [2]: > 500 µM
IC50 ([3]; nucleotide analogs (Table 6)): 240 ± 30 µM
IC50 [4]: > 500 µM

Nc1nc2c(ncn2[C@@H]2O[C@H](COP(=O)(O)OP(=O)(O)OP(=O)(O)O)C[C@H]2O)c(=O)[nH]1 [3′deoxyGTP]
IC50 [1]: 25 ± 2 µM
IC50 [2]: 104 ± 20 µM
IC50 ([3]; nucleotide analogs (Table 6)): 4.2 ± 1.4 µM
IC50 ([3]; triphosphate form of the compound tested (Table 4)): 4.2 ± 1.4 µM
IC50 [4]: > 500 µM

Cc1cnc(CNC(=O)c2c(=O)c3ccc(N4CCCN(C)CC4)nc3n3c2sc2ccccc23)cn1 [CX-5461]
relative levels of RNA transcripts (pre-rRNA, myc, mitochondrial ATP6) [5]: selectively decreased pre-rRNA but had no effect on the levels of myc and mitochondrial ATP6 RNAs

COc1ccc(C[C@H](N)C(=O)N[C@H]2[C@@H](O)[C@H](n3cnc4c(N(C)C)ncnc43)O[C@@H]2CO)cc1 [Puromycin]
CC50 at 5 days [6]: 0.15 ± 0.01 µM
CC50 at 5 days [7]: 1.9 ± 0.8 µM
CC50 at 5 days [8]: 0.52 ± 0.19 µM
CC50 at 5 days [9]: 1 ± 0.2 µM
CC50 at 5 days [10]: 0.22 ± 0.07 µM
selectivity of effect on COX-1 versus SDH-A and ATP levels [11]: nonselective inhibitive effects on the COX-1, SDH-A, and ATP levels
CC50 at 5 days [12]: 0.12 ± 0.01 µM
CC50 at 5 days [13]: 0.65 ± 0.18 µM
CC50 at 5 days [14]: 0.24 ± 0.05 µM
CC50 at 14 days [15]: 0.27 ± 0.04 µM
CC50 at 5 days [16]: 0.33 ± 0.05 µM
CC50 at 3 days [17]: 0.49 ± 0.11 µM
selectivity of effect on spare respiratory capacity versus DNA and ATP levels [18]: nonselective inhibition of the spare respiratory capacity, DNA, and ATP levels
CC50 at 5 days [19]: 4.5 ± 1.9 µM
CC50 at 14 days [20]: 0.36 ± 0.06 µM
CC50 at 5 days [21]: 0.16 ± 0.06 µM
